Laboratory results: a melting point compilation (Tetko et al.; mined from patent text by program, amines drawn as free bases though some values may be those of a salt)

Compound | melting point
CC(C)(C)OC(=O)NCCCCn1cnc2c(Cl)nc3ccccc3c21 | 148 to 150 °C
CCSc1nnnn1-c1ccc(Cl)cc1F | 76 to 79 °C
C[C@@H](Oc1cc(-c2ncc(C(F)(F)F)cc2F)c(F)cc1Cl)C(=O)O | 48 to 50 °C
CC1(C)CC(=O)Nc2ccc([N+](=O)[O-])cc21 | 202 to 204 °C
CN1C(=O)C(NC(=O)NC2CCCCC2)N=C(c2ccccc2)c2ccccc21 (configuration not stated) | 287 to 288 °C
CCOc1ccc2c(ccn2C)c1O | 69 to 70 °C
Cc1ccc(S(=O)(=O)OC[C@H]2CN(c3cccc(F)c3)C(=O)O2)cc1 | 114 to 115 °C
CCOC(=O)CC(C#N)(CC(=O)OCC)c1ccccn1 | 86.5 to 88 °C
CN1CCN(CC/C=C/c2ccc3ncc(C#N)c(Nc4ccc(Cl)cc4Cl)c3c2)CC1 | 97 to 98 °C
COC(=O)C(CC(=O)c1cc(Cl)c(C)c(Cl)c1)OC (configuration not stated) | 75 to 78 °C
CC(C)C[C@H](NC(=O)C(CS)C(F)(F)F)C(=O)O (some centres not stated) | 132 to 134 °C
CCOC(=O)C1=C(N)NC2=C(C(=O)CCC2)C1c1ccccc1-c1ccccc1 (configuration not stated) | 248 °C
Cc1cc(=O)c(C(=O)OC2CCCCC2)nn1-c1ccc(Cl)cc1 | 160 to 162 °C
COc1cc2c(cc1OC)C(=O)C(CC=O)C2 (racemic) | 122 °C
O=[N+]([O-])c1cn(-c2cccnc2)nc1Br | 139 to 141 °C
CCOC(=O)c1cn(Cc2ccccc2)nc1OCc1ccc(OCc2nc(-c3ccco3)oc2C)c(-c2ccccc2)c1 | 134 to 135 °C
COC(=O)[C@H](CCCC(OC)OC)N1C(=O)c2ccccc2C1=O | 69 to 70 °C
CCN1CCC/C1=C\c1nc(-c2ccc(F)cc2)c(-c2ccncc2)n1CCCc1ccccc1 | 127 to 128 °C
O=c1[nH]c2ccc(Cl)cc2n1CCCN1CCC(O)(c2ccc(Cl)cc2)CC1 | 181 °C
O=C(N1CCOCC1)C1(c2onc(-c3ccc(O)cc3)c2-c2ccccc2)CC1 | 195 to 196 °C
CCOC(=O)C=Cc1c(C)cc(OC)c(C)c1C | 42 to 44 °C
CC(C1CC1)N(CCCc1c[nH]c2ccc(F)cc12)C1COc2c(F)ccc(C(N)=O)c2C1 (configuration not stated) | 124 °C
CCCCCCCCCCOc1ccc(-c2c(C)[nH]c(=O)n2C2CCCCC2)cc1 | 137 to 138 °C
CC(=O)N1CCN=C1Nc1c(Br)cccc1Br | 182 to 185 °C
N#Cc1c(C(F)(F)F)cc(-c2ccc(C(F)(F)F)cc2)[nH]c1=O | 197 °C
CCCCC(c1ccc2[nH]c(=O)c(-c3ccccc3)nc2c1)n1ccnc1 (configuration not stated) | 192 °C

Compound | melting point
COC(=O)Cc1c(Cl)nc(C)nc1Cl | 67 to 68 °C
CC(C)Nc1cccnc1N1CCN(C(=O)c2ccc(C(=O)NC[C@H](C)O)cc2)CC1 | 135 °C
CC(C)(C)C#CC(=O)C#CC(C)(C)C | 62 to 63.5 °C
O=c1c2ccc(Cl)cc2[nH]c2c(O)nn(Cc3ccsc3)c(=O)c12 | > 250 °C
CCC(=O)c1cc2c(c(Cl)c1O)OC(C(=O)O)C2 (configuration not stated) | 227 to 229 °C
COCCNC(=O)c1ccc2c(c1)C(=NNc1ccc(S(N)(=O)=O)cc1)C(=O)N2 | > 230 °C
NC(=O)OC[C@H]1NC(=O)[C@H]1NC(=O)OCc1ccccc1 | 192 to 193 °C
COc1ccc(S(=O)(=O)C(C)(Cc2ccc(Br)cc2)C(=O)NO)cc1 (configuration not stated) | 86 to 88 °C
O=C(N[C@@H](Cc1ccc(NC(=O)c2c(Cl)cccc2Cl)cc1)C(=O)O)OCC1c2ccccc2-c2ccccc21 | 230 to 234 °C
O=C1OCCC12Sc1ccc(Cl)cc1C2=O (configuration not stated) | 143 to 144 °C
c1cc(OC2CN3CCC2CC3)no1 (configuration not stated) | 80 to 81 °C
COc1ccc(N(C)c2ncnc3occ(C)c23)cc1 | 84 to 85.6 °C
FC(F)(F)CNC(=S)Nc1cccc(COC(=S)NCC(F)(F)F)n1 | 173 to 175 °C
COc1c(-c2ccccc2)csc1-c1cnn2c(O)ccnc12 | 234 to 236 °C
CCn1ncc2c(NCC3CCC(CO)CC3)c3ccccc3nc21 (configuration not stated) | 188 to 190 °C
COc1ccc(CNc2nnc(N3CCC(O)C3)c3ccc(Cl)cc23)cc1Cl (configuration not stated) | 191 to 193 °C
Oc1nc2cc(Cl)ccc2n2cnnc12 | > 300 °C
O=C(OCc1ccccc1)N1CCN(c2ccc(-c3ccnc(Nc4ccc5[nH]nnc5c4)n3)cn2)CC1 | 247 to 249 °C
CCCOc1ccc(S(=O)(=O)C(C)(C)C)cc1C(N)=O | 215 to 218 °C
Cc1ccc(Nc2nc(-n3nc(C)cc3C)nc3ccccc23)cc1 | 210 to 216 °C
Cc1ccc(C)c(OCc2ccccc2C(=O)c2cc(C)no2)c1 | 106 to 108 °C
N#Cc1cccc(-c2ccc3c(c2)C2(CCCC2)C(=O)N3)c1 | 217 to 219 °C
COC(=O)c1ccc2oc(Cl)nc2c1 | 104 to 106 °C
COc1ccc(S(=O)(=O)CC(O)(CS(=O)(=O)c2ccc(F)cc2)C(=O)NO)cc1 (configuration not stated) | 85 to 90 °C
CCOC(=O)C1=C(C)NC(C)=C(C(=O)OCC)C1c1cccc(Br)c1 | 125 to 126 °C
CCOC(=O)C(C#N)=NOC(=O)OCC(Cl)(Cl)Cl | 51 to 53 °C
